{
  "source": "patent US11052042B2",
  "about": "“Aqueous suspensions of ciclesonide for nebulisation” (Covis Pharma B.V., priority 2003, dated 2021)",
  "origin": "cited, not measured here",
  "data": [
    {"smiles": "CC(C)C(=O)OCC(=O)[C@@]12O[C@H](C3CCCCC3)O[C@@H]1C[C@H]1[C@@H]3CCC4=CC(=O)C=C[C@]4(C)[C@H]3[C@@H](O)C[C@@]12C", "note": "[Ciclesonide, [11β,16α(R)]-16,17-[(Cyclohexylmethylen)bis(oxy)]-11-hydroxy-21-(2-methyl-1-oxopropoxy)pregna-1,4-dien-3,20-dion]", "values": [
      {"measurement": "concentration of the drug in the lungs", "setting": "in vivo", "value": "high"},
      {"measurement": "metabolism by liver oxidases", "setting": "in vivo", "value": "very high"},
      {"measurement": "plasma half-life", "setting": "in vivo", "value": "low"},
      {"measurement": "absorption after oral administration", "setting": "oral administration", "value": "only moderately absorbed"},
      {"measurement": "anti-inflammatory activity compared with budesonide", "setting": "relative to budesonide", "value": "higher"},
      {"measurement": "systemic activity compared with budesonide", "setting": "relative to budesonide", "value": "three times lower"}
    ]}
  ]
}
